The assay has as its target T1, Solute carrier organic anion transporter family member 1A3 (Rattus norvegicus, UniProt P70502).
T1 sequence (P70502 whole entry): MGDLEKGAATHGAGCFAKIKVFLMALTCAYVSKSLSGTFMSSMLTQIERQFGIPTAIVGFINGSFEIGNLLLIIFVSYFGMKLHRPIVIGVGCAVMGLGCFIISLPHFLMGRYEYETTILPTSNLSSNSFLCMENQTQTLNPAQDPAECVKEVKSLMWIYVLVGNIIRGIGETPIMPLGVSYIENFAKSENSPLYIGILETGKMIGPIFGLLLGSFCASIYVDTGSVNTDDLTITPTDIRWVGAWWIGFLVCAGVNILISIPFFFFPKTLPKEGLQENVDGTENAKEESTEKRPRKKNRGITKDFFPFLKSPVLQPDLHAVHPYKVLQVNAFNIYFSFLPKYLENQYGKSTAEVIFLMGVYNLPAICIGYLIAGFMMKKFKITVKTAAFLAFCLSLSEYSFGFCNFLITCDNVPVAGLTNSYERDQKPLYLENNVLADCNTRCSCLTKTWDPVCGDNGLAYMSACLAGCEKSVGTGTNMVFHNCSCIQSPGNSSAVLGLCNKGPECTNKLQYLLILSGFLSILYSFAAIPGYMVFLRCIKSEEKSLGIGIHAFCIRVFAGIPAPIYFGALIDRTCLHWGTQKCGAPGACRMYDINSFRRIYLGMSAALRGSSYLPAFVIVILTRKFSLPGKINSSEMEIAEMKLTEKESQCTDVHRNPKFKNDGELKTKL
Put plainly: TP_TRANSPORTER: inhibition of MTX uptake in OAT-K1-expressing MDCK cells. It is filed as functional, cell-based.

Consider `Nc1nc(N)c2nc(CNc3ccc(C(=O)N[C@@H](CCC(=O)O)C(=O)O)cc3)cnc2n1` [AMINOPTERIN], for which the Ki came to 0.5 µM.
As for `Nc1nc2ncc(CNc3ccc(C(=O)N[C@@H](CCC(=O)O)C(=O)O)cc3)nc2c(=O)[nH]1` [FOLIC ACID], the figure is 14.1 µM.
The molecule `Nc1nc2c(c(=O)[nH]1)N(C=O)C(CNc1ccc(C(=O)N[C@@H](CCC(=O)O)C(=O)O)cc1)CN2` (stereo not given in full) [LEUCOVORIN] showed a Ki of 8.2 µM.
As for `CN1c2c(nc(N)[nH]c2=O)NC[C@@H]1CNc1ccc(C(=O)N[C@@H](CCC(=O)O)C(=O)O)cc1` [LEVOMEFOLIC ACID], the figure is 1.2 µM.
The value for `O=C1OC(c2ccc(O)c(S(=O)(=O)O)c2)(c2ccc(O)c(S(=O)(=O)O)c2)c2c(Br)c(Br)c(Br)c(Br)c21` [SULFOBROMOPHTHALEIN SODIUM] was 21 µM.

The values above are taken from ChEMBL document CHEMBL2074088, “Trans-stimulation effects of folic acid derivatives on methotrexate transport by rat renal organic anion transporter, OAT-K1” (J Pharmacol Exp Ther, 2000).
